Source: patent US12545640B2, “Substituted 6,7-dihydro-5H-benzo[7]annulene compounds, processes for their preparation and therapeutic uses thereof” (SANOFI, priority 2019, dated 2026)

Target: T1, ERα (Homo sapiens, UniProt P03372)
T1 construct: host or cells: MCF7 cells
T1 sequence (P03372 1-595): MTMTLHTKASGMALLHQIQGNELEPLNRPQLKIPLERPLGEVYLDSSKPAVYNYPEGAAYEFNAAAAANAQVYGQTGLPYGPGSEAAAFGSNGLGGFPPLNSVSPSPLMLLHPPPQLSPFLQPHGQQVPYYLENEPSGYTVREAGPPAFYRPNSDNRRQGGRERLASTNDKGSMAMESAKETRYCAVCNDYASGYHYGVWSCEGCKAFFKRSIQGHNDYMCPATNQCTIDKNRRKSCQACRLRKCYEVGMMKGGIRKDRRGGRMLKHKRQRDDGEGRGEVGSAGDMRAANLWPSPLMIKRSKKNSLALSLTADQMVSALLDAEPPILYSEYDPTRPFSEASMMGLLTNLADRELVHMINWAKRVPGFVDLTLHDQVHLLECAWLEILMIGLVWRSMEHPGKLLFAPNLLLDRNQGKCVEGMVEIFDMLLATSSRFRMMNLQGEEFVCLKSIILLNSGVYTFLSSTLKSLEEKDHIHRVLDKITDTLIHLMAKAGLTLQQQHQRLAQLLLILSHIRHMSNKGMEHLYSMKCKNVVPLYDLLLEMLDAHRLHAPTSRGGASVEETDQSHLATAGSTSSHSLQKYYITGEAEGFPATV
Experiment: Estrogen receptor degradation activity: breast cancer cell ERα in cell western assay (MCF7 cells)
Format: cell-based
Details: 4 hours, relative to fulvestrant 0.1 μM positive control; for % Degradation At 0.3 μM: final concentrations ranging from 0.3-0.0000018 μM
How it was run: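 MCF7 cells in phenol red-free MEM alpha with 5% charcoal-stripped FBS, treated 4 h with 9-point 1:5 dilutions (top final 3 or 0.3 μM); fulvestrant 0.1 μM as positive control. Formalin-fixed, anti-ER antibody with Alexa 488 secondary; ERα fluorescence normalised to Syto-64 DNA signal.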

| Compound | % Degradation At 0.3 μM | % Degradation At 3 μM (final concentrations ranging from 3-0.000018 μM) |
| --- | --- | --- |
| CCOc1ccc(C2=C(c3ccc(O[C@H]4CCN(CCCF)C4)cc3)c3ccc(C#N)cc3CCC2)c(F)n1 [Example 80, (S)-8-(6-ethoxy-2-fluoropyridin-3-yl)-9-(4-((1-(3-fluoropropyl)pyrrolidin-3-yl)oxy)phenyl)-6,7-dihydro-5H-benzo[7]annulene-3-carbonitrile 2,2,2-trifluoroacetate] | 90% | – |
| O=C(Nc1ccc2c(c1)CCCC(c1ccc(Cl)cc1Cl)=C2c1ccc(O[C@H]2CCN(CCCF)C2)cc1)C1(O)CC1.O=CO [Example 84, (S)—N-(8-(2,4-dichlorophenyl)-9-(4-((1-(3-fluoropropyl)pyrrolidin-3-yl)oxy)phenyl)-6,7-dihydro-5H-benzo[7]annulen-3-yl)-1-hydroxycyclopropane-1-carboxamide formate] | 71% | – |
| CS(=O)(=O)Nc1ccc2c(c1)CCCC(c1cccc(F)c1Cl)=C2c1ccc(O[C@H]2CCN(CCCF)C2)cc1 [Example 90, (S)—N-(8-(2-chloro-3-fluorophenyl)-9-(4-((1-(3-fluoropropyl)pyrrolidin-3-yl)oxy)phenyl)-6,7-dihydro-5H-benzo[7]annulen-3-yl)methanesulfonamide] | 77% | – |
| CC1(C)OB(c2ccc3c(c2)CCCC(c2ccccc2)=C3c2ccc(O[C@H]3CCN(CCCF)C3)cc2)OC1(C)C [Example 91, (S)-1-(3-fluoropropyl)-3-(4-(8-phenyl-3-(4,4,5,5-tetramethyl-1,3,2-dioxaborolan-2-yl)-6,7-dihydro-5H-benzo[7]annulen-9-yl)phenoxy)pyrrolidine] | 90% | – |
| OB(O)c1ccc2c(c1)CCCC(c1ccccc1)=C2c1ccc(O[C@H]2CCN(CCCF)C2)cc1 [Example 92, (S)-(9-(4-((1-(3-fluoropropyl)pyrrolidin-3-yl)oxy)phenyl)-8-phenyl-6,7-dihydro-5H-benzo[7]annulen-3-yl)boronic acid] | 85% | – |
| O=[N+]([O-])c1cccc(-c2ccc3c(c2)CCCC(c2cccc(F)c2Cl)=C3c2ccc(O[C@H]3CCN(CCCF)C3)cc2)c1 [Example 96, (S)-3-(4-(8-(2-chloro-3-fluorophenyl)-3-(3-nitrophenyl)-6,7-dihydro-5H-benzo[7]annulen-9-yl)phenoxy)-1-(3-fluoropropyl)pyrrolidine] | 76% | – |

Continued, values first:

| % Degradation At 0.3 μM | % Degradation At 3 μM (final concentrations ranging from 3-0.000018 μM) | Compound |
| --- | --- | --- |
| 67% | – | NC(=O)c1ccc(-c2ccc3c(c2)CCCC(c2ccc(Cl)cc2Cl)=C3c2ccc(O[C@H]3CCN(CCCF)C3)cc2)cc1 [Example 81, (S)-4-(8-(2,4-dichlorophenyl)-9-(4-((1-(3-fluoropropyl)pyrrolidin-3-yl)oxy)phenyl)-6,7-dihydro-5H-benzo[7]annulen-3-yl)benzamide] |
| 63% | – | COC(=O)c1ccccc1-c1ccc2c(c1)CCCC(c1ccc(Cl)cc1Cl)=C2c1ccc(O[C@H]2CCN(CCCF)C2)cc1 [Example 83, methyl (S)-2-(8-(2,4-dichlorophenyl)-9-(4-((1-(3-fluoropropyl)pyrrolidin-3-yl)oxy)phenyl)-6,7-dihydro-5H-benzo[7]annulen-3-yl)benzoate] |
| 69% | – | O=C1C[C@H](O)CN1c1ccc2c(c1)CCCC(c1ccc(Cl)cc1Cl)=C2c1ccc(O[C@H]2CCN(CCCF)C2)cc1 [Example 85, (S)-1-(8-(2,4-dichlorophenyl)-9-(4-(((S)-1-(3-fluoropropyl)pyrrolidin-3-yl)oxy)phenyl)-6,7-dihydro-5H-benzo[7]annulen-3-yl)-4-hydroxypyrrolidin-2-one] |
| 88% | – | O=C(O)c1ccccc1-c1ccc2c(c1)CCCC(c1ccc(Cl)cc1Cl)=C2c1ccc(O[C@H]2CCN(CCCF)C2)cc1 [Example 86, (S)-2-(8-(2,4-dichlorophenyl)-9-(4-((1-(3-fluoropropyl)pyrrolidin-3-yl)oxy)phenyl)-6,7-dihydro-5H-benzo[7]annulen-3-yl)benzoic acid] |
| 73% | – | O=C(Nc1ccc2c(c1)CCCC(c1ccc(Cl)cc1Cl)=C2c1ccc(O[C@H]2CCN(CCCF)C2)cc1)C1CC1(F)F (stereo partly drawn) [Example 87, N-(8-(2,4-dichlorophenyl)-9-(4-(((S)-1-(3-fluoropropyl)pyrrolidin-3-yl)oxy)phenyl)-6,7-dihydro-5H-benzo[7]annulen-3-yl)-2,2-difluorocyclopropane-1-carboxamide] |
| – | 84% | O=C(O)Cc1ccc2c(c1)CCCC(c1ccc(Cl)cc1Cl)=C2c1ccc(O[C@H]2CCN(CCCF)C2)cc1 [Example 93, (S)-2-(8-(2,4-dichlorophenyl)-9-(4-((1-(3-fluoropropyl)pyrrolidin-3-yl)oxy)phenyl)-6,7-dihydro-5H-benzo[7]annulen-3-yl)acetic acid] |
| 64% | – | CC(C)(O)c1cccc(-c2ccc3c(c2)CCCC(c2ccc(Cl)cc2Cl)=C3c2ccc(O[C@H]3CCN(CCCF)C3)cc2)c1 [Example 94, (S)-2-(3-(8-(2,4-dichlorophenyl)-9-(4-((1-(3-fluoropropyl)pyrrolidin-3-yl)oxy)phenyl)-6,7-dihydro-5H-benzo[7]annulen-3-yl)phenyl)propan-2-ol] |
| 59% | – | CC(C)(O)c1ccc(-c2ccc3c(c2)CCCC(c2cccc(F)c2Cl)=C3c2ccc(O[C@H]3CCN(CCCF)C3)cc2)cc1 [Example 98, (S)-2-(4-(8-(2-chloro-3-fluorophenyl)-9-(4-((1-(3-fluoropropyl)pyrrolidin-3-yl)oxy)phenyl)-6,7-dihydro-5H-benzo[7]annulen-3-yl)phenyl)propan-2-ol] |
